Results on 17 molecules are retold here after paper PMC7470021, “Functionality study of chalcone-hydroxypyridinone hybrids as tyrosinase inhibitors and influence on anti-tyrosinase activity” (Journal of Enzyme Inhibition and Medicinal Chemistry, 2020).

Structures are written as SMILES. Like-named read-outs stand apart in the source and are kept apart here.

Series [1] concerns the target T1, monophenolase activity of mushroom tyrosinase (Agaricus bisporus, UniProt C7FF04). Also on record: method as in PMID 15231412. The conditions noted are these: at 50 μM, literature value; cited from earlier work.
Another series deals with mushroom tyrosinase. Kind of series: Reversibility of inhibitory effect on tyrosinase (L-DOPA substrate). In kind it is biochemical. The conditions noted are these: inhibitor 0-25 µM, 30 °C, pH 6.8. The source says: Measurement method was substantially the same to that described above, changing the added concentration of the enzyme solution, different concentrations of inhibitor on mushroom tyrosinase L-DOPA as reaction substrate.

Series [2] deals with T1, monophenolase activity of mushroom tyrosinase. Kind of series: Monophenolase inhibition assay (L-tyrosine substrate, dopachrome absorbance at 475 nm). The settings on record: pH 6.8, read-out: Inhibition (%) on monophenolase activity.
Procedure: L-Tyrosine and L-DOPA were used as reaction substrate for monophenolase and diphenolase assays, respectively. […] Finally, 20 units of enzyme was quickly added to the reaction mixture and incubated at 30 °C for 10 min. […] The assay was carried out in triplicate and DMSO was used as control[17].
A short description of series [3]: pKa determination by spectrophotometric titration. In kind it is physicochemical. The conditions noted are these: DMSO/water solution (molar ratio 0.2:1) with 0.1 M KCl, 25 °C. The protocol:
(§1) An automated titration system used in the study consists of a Metrohm 765 Dosimat autoburette, a Mettler Toledo MP230 pH metre with SENTEK pH electrode (P11), and an HP 8453 UV-visible spectrophotometer with a Hellem quartz flow cuvette being circulated through by a Gilson Mini-plus #3 pump—speed capability (20 ml/min). A potassium chloride electrolyte solution (0.1 M) was used to maintain the ionic strength. The temperature of the test solutions was maintained in a thermostatic jacketed titration vessel at 25 °C (± 0.1 °C) using a Fisherbrand Isotemp water bath. The pH electrodes were calibrated using GLEE[25] with data obtained by titrating a volumetric standard HCl (0.1 M) in KCl (0.1 M) with KOH (0.1 M) under an argon gas atmosphere in the vessel. The solution under investigation was stirred vigorously during the experiment. […] All instruments were interfaced to a computer and controlled by an in-house programme. An automated titration adopted the following strategy: the pH of a solution was increased by 0.1 pH unit by the addition of KOH solution (0.1 M) from the autoburette. The pH readings were judged to be stable if their values varied by less than 0.01 pH unit after a set incubation period. […] The cycle was repeated until the defined end point pH value was achieved. Titrations were carried out in the solution with molar ratio of DMSO: H2O being 0.2: 1 due to the solubility issue of samples and/or the corresponding copper(II) complexes. Under this condition, the pH metre readings are shifted, compared to the aqueous solution. All the titration data were analysed with the HypSpec2014 programme (http://www.hyperquad.co.uk/)[26]^,[27]. The speciation plot and pM values were calculated with the HYSS programme. Based on deferiprone titrations, pCu^2+ at pH 7.6, denoted as pCu^2+7.6, with [ligand]total = 10 µM and [Metal]total = 1 µM, were calculated as close approximations for pCu^2+ at pH 7.4 in the aqueous solution. Analytical grade reagent materials were used in the preparation of all solutions.

Series [4] can be described thus: Copper(II) stability constants determination and pCu2+. In kind it is physicochemical. The procedure: as §1
On the set-up of series [5]: method as in PMID 26239546. The conditions noted are these: literature value for kojic acid; cited from earlier work.
Where [6] appears, read: 25 °C, 0.1 M KCl, DMSO:H2O molar ratio 0.2:1.

T1 sequence (G1K3P4 entry or part of it): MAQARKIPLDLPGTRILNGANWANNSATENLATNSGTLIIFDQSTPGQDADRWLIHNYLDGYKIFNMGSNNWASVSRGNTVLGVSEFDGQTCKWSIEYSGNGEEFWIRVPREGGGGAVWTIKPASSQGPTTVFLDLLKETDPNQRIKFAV
T1 sequence (C7FF04 1-392): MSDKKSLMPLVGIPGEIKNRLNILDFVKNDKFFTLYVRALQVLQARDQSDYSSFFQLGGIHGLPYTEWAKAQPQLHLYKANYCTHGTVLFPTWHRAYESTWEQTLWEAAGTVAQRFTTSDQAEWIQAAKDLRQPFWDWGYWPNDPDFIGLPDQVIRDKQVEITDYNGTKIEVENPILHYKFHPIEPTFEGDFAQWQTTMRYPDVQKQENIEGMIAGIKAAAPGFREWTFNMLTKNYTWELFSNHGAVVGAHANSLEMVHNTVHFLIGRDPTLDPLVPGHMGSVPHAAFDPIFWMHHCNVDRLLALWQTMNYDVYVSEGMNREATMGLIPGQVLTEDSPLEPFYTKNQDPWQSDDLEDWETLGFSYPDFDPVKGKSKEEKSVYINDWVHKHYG

Turning to `O=C(/C=C/c1ccc(O)cc1)c1ccc(O)cc1O` [2′,4′,4-trihydroxychalcone], in series [1], the Inhibition rate is on record as 67%. Take `Cn1cc(O)c(=O)cc1/C=C/C(=O)c1ccc(F)cc1` [Compound 1a]: the “Reversibility of inhibition on diphenolase activity of tyrosinase” value in the series on mushroom tyrosinase is “reversible”. In addition, the inhibition at 50 µM in series [2] turned out to be 85.3%. Turning to `COc1ccc(C(=O)/C=C/c2cc(=O)c(O)cn2C)c(O)c1` [Compound 1b], in series [2], the inhibition at 50 µM was 66.7%. For `COc1ccc(C(=O)/C=C/c2cc(=O)c(O)co2)c(OC)c1` [Compound 1c], the inhibition at 50 µM in series [2] was determined as 50.3%.

Turning to `O=C(/C=C/c1cc(=O)c(O)c[nH]1)c1ccc(F)cc1` [Compound 1d], the “Reversibility of inhibition on diphenolase activity of tyrosinase” value in the series with mushroom tyrosinase was “reversible”. Moreover, the inhibition at 50 µM in series [2] stood at 89.5%. With `CCn1cc(O)c(=O)cc1/C=C/C(=O)c1ccccc1` [Compound 1e], the inhibition at 50 µM in series [2] came out at 63.3%.

In the case of `CCn1cc(O)c(=O)cc1/C=C/C(=O)c1ccc(O)c(O)c1` [Compound 1f], the inhibition at 50 µM in series [2] amounted to 78.8%.

With `CCn1cc(O)c(=O)cc1/C=C/C(=O)c1ccc(OC)cc1O` [Compound 1g], the inhibition at 50 µM in series [2] was 71.4%.

Regarding `CCn1cc(O)c(=O)cc1/C=C/C(=O)c1ccc(F)cc1` [Compound 1h], in series [2], the inhibition at 50 µM is 57.8%. Turning to `Cn1cc(O)c(=O)cc1/C=C/C(=O)c1ccccc1` [Compound 1i], the inhibition at 50 µM in series [2] came out at 72.8%. For `CCCCn1cc(O)c(=O)cc1/C=C/C(=O)c1ccc(O)c(O)c1` [Compound 1j], the inhibition at 50 µM in series [2] is 69.4%. For `CCCCn1cc(O)c(=O)cc1/C=C/C(=O)c1ccc(OC)cc1O` [Compound 1k], the inhibition at 50 µM in series [2] turned out to be 64.6%. As to `CCCCn1cc(O)c(=O)cc1/C=C/C(=O)c1ccc(F)cc1` [Compound 1l], the inhibition at 50 µM in series [2] was 50.3%. Turning to `O=C(/C=C/c1cc(=O)c(O)c[nH]1)c1ccccc1` [Compound 1m], in series [2], the inhibition at 50 µM turned out to be 66.7%.

In the case of `COc1ccc(C(=O)/C=C/c2cc(=O)c(O)c[nH]2)cc1OC` [Compound 1n], the pKa in series [3] (DMSO:H2O molar ratio 0.2:1, read-out: pKa (1-NH)) is 12; in series [3] (DMSO:H2O molar ratio 0.2:1, read-out: pKa (4-oxo functional group)) it was 3.3; in series [3] (DMSO:H2O molar ratio 0.2:1, read-out: pKa (5-hydroxyl group)) it was 8.8. In addition, the “log β1 (log stability constant of copper complex CuLH)” value in series [4] (setting [6]) is reported as 20.9. Besides, the “log β2 (log stability constant of copper complex CuL2H2)” value in series [4] (setting [6]) is on record as 40.4. In addition, the “pCu2+” value in series [4] ([Cu]total=10^-6 M, [L]total=10^-5 M, pH 7.4, calculated from pKa and log stability constants with HYSS) is on record as 9.9. In series [2], the inhibition at 50 µM came to 87.6%.

Turning to `COc1ccc(C(=O)/C=C/c2cc(=O)c(O)c[nH]2)c(O)c1` [Compound 1o], the inhibition at 50 µM in series [2] amounted to 63.3%.

For the molecule `O=c1cc(CO)occ1O` [Kojic acid], the “pCu2+” value in series [5] is given as 7.3.

The term inhibition denotes the percentage by which the read-out fell short of the control.
